# System: HIV broadly neutralizing antibody 2G12
# Assay: STD-NMR (Saturation Transfer Difference NMR) binding analysis with 2G12 IgG
# Details: for mannose unit showing greatest saturation transfer (STD): pH 6.7 deuterated phosphate buffered saline, saturation time 3 s; for recognition by neutralizing HIV antibody 2G12: summary in Discussion, contacts similar to natural oligomannose
# Experimental: With these S-Man3 and S-Man4 derivatives in hand, their recognition by HIV broadly neutralizing antibody 2G12 was studied. 2G12 binds primarily to the linear trimannose (D1) arm of Man9GlcNAc2. […] The temperature was 298 K for S-Man3 14 and 293 K for S-Man4 21 in order to move the HDO peak to avoid covering an anomeric resonance. The experiments were performed without suppression of the residual HDO signal. On-resonance frequencies of 0.86 ppm δ (protein aliphatic) and 7 ppm δ (protein aromatic) were applied for S-Man3 14 and […] S-Man4 21, respectively, in both cases with a saturation time of 3 s and an off-resonance frequency of 40 ppm δ.
# In the case of the Man4 derivative, negligible STD is observed for the reducing-terminal mannose unit.
# [1] = 25 μM 2G12 IgG, 200:1 sugar:antibody
Compound,mannose unit showing greatest saturation transfer (STD) [1],recognition by neutralizing HIV antibody 2G12,"STD observed for the reducing-terminal mannose unit (25 μM 2G12 IgG, 200:1 sugar:antibody, 293 K)"
"NCCO[C@H]1O[C@H](CO)[C@@H](O)[C@H](O)[C@@H]1S[C@H]1O[C@H](CO)[C@@H](O)[C@H](O)[C@@H]1O[C@H]1O[C@H](CO)[C@@H](O)[C@H](O)[C@@H]1O [compound 14, 2-aminoethyl-[α-D-mannopyranosyl-(1→2)-2-S-{α-D-mannopyranosyl-(1→2)}]-α-D-mannopyranoside]",greatest saturation transfer is seen for the non-reducing mannose unit,recognized,
"[N-]=[N+]=NC1CCC(O[C@@H]2OC(CO)[C@@H](O)[C@H](O[C@H]3OC(CO)[C@@H](O)[C@H](O)C3O[C@H]3OC(CO)[C@@H](O)[C@H](O)C3S[C@H]3OC(CO)[C@@H](O)[C@H](O)C3O)C2O)CC1 (stereo partly drawn) [compound 21, Trans-azidocyclohexyl-3-O-[{α-D-mannopyranosyl-(1→2)}-2-O-{α-D-mannopyranosyl-(1→2)}-2-S-{α-D-mannopyranosyl-(1→2)}]-β-D-mannopyranoside]",greatest saturation transfer is seen for the non-reducing mannose unit,recognized,negligible

# Source: patent US20240182603A1, “SULFUR-S[…] TO STABILIZE OLIGOSACCHARIDE” (Brandeis University, priority 2021, published 2024)
